According to ChEMBL document CHEMBL1145380, “Optimization of 1,3,4-benzotriazepine-based CCK(2) antagonists to obtain potent, orally active inhibitors of gastrin-mediated gastric acid secretion” (J Med Chem, 2007):

molecular target: T1, Cholecystokinin receptor type A (Homo sapiens, UniProt P32238); assay: Displacement of [3H]L-364718 from human recombinant CCK1 receptor expressed in CHOK1 cells; type: cell-based, CHO-K1; conditions: not given
T1 sequence (P32238 whole entry): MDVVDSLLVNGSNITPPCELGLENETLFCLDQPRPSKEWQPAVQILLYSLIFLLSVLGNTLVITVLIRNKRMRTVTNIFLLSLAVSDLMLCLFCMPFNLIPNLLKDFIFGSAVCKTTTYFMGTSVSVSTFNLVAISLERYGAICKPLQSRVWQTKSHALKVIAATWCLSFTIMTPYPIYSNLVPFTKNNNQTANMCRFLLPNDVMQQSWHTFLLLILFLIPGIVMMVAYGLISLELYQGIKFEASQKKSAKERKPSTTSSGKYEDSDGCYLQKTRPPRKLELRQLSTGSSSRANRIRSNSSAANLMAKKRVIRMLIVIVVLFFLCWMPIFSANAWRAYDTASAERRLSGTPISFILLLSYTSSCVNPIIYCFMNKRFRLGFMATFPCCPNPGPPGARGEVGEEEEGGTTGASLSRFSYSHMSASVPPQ

Compound | Ki [nM]
CC(C)(C)C(=O)CN1C(=O)N(CC(=O)Nc2cccc(-c3nc(C(=O)O)co3)c2)N=C(C2CCCCC2)c2ccccc21 | 661
CNc1cccc(NC(=O)N[C@@H]2N=C(c3ccccn3)c3ccccc3N(CC(=O)C(C)(C)C)C2=O)c1 [NETAZEPIDE] | 28.8
CC(C)(C)C(=O)CN1C(=O)N(CC(=O)Nc2ccc3ccn(CC(=O)O)c3c2)N=C(C2CCCCC2)c2ccccc21 | 550
O=C(O)CCc1cccc(NC(=O)CN2N=C(C3CCCCC3)c3ccccc3N(CC(=O)C3CCCC3)C2=O)c1 | 2510
CC(C)(C)C(=O)CN1C(=O)N(CC(=O)Nc2cccc(-c3ccc(C(=O)O)o3)c2)N=C(C2CCCCC2)c2ccccc21 | 457
CC(C)(C)C(=O)CN1C(=O)N(CC(=O)Nc2ccc3ncn(CC(=O)O)c3c2)N=C(C2CCCCC2)c2ccccc21 | > 10000
CC(C)(C)C(=O)CN1C(=O)N(CC(=O)Nc2cccc(-c3csc(C(=O)O)n3)c2)N=C(C2CCCCC2)c2ccccc21 | > 10000
CC(C)(C)C(=O)CN1C(=O)N(CC(=O)Nc2cccc(CCC(=O)O)c2)N=C(C2CCCCC2)c2ccccc21 | > 10000
CC(C)(C)C(=O)CN1C(=O)N(CC(=O)Nc2cccc(SCc3nn[nH]n3)c2)N=C(C2CCCCC2)c2ccccc21 | 389
O=C(O)Cc1cccc(NC(=O)CN2N=C(C3CCCCC3)c3ccccc3N(CC(=O)C3CCCC3)C2=O)c1 | > 10000
O=C(O)CSc1cccc(NC(=O)CN2N=C(C3CCCCC3)c3ccccc3N(CC(=O)C3CCCC3)C2=O)c1 | 2090
CC(C)(C)C(=O)CN1C(=O)N(CC(=O)Nc2ccc3cnn(CC(=O)O)c3c2)N=C(C2CCCCC2)c2ccccc21 | 2140
CC(C)(C)C(=O)CN1C(=O)N(CC(=O)Nc2cccc3c2ccn3CC(=O)O)N=C(C2CCCCC2)c2ccccc21 | > 10000
CC(C)(C)C(=O)CN1C(=O)N(CC(=O)Nc2ccc3c(ccn3CC(=O)O)c2)N=C(C2CCCCC2)c2ccccc21 | 2510
CC(C)(C)C(=O)CN1C(=O)N(CC(=O)Nc2ccc3c(cnn3CC(=O)O)c2)N=C(C2CCCCC2)c2ccccc21 | 8130
CC(C)(C)C(=O)CN1C(=O)N(CC(=O)Nc2cccc3c2cnn3CC(=O)O)N=C(C2CCCCC2)c2ccccc21 | 6920
CC(C)(C)C(=O)CN1C(=O)N(CC(=O)Nc2cccc(-c3cn(CC(=O)O)cn3)c2)N=C(C2CCCCC2)c2ccccc21 | 1700
CC(C)(C)C(=O)CN1C(=O)N(CC(=O)Nc2cccc(-c3nn[nH]n3)c2)N=C(C2CCCCC2)c2ccccc21 | 1740
CC(C)(C)C(=O)CN1C(=O)N(CC(=O)Nc2cccc(-c3cccc(C(=O)O)c3)c2)N=C(C2CCCCC2)c2ccccc21 | 550

molecular target: T2, Gastrin/cholecystokinin type B receptor (Rattus norvegicus, UniProt P30553); assay: Antagonist activity at CCK2 receptor in perfused rat stomach assessed as inhibition of pentagastrin-stimulated gastric acid secretion; type: functional, tissue-based; conditions: read-out: pA2 (converted)
T2 sequence (P30553 whole entry): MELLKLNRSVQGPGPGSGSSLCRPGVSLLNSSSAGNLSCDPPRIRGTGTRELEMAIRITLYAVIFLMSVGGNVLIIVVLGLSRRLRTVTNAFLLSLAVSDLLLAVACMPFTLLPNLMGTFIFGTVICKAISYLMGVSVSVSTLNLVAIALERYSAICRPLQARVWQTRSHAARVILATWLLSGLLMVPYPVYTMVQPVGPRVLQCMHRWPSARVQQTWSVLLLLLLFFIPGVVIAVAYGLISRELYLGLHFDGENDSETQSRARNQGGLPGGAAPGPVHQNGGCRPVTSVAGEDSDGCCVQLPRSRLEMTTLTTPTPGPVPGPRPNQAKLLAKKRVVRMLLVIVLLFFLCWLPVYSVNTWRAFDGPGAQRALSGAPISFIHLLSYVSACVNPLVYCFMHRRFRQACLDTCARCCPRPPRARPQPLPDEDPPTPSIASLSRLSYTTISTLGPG

Compound | Kb [nM]
CC(C)(C)C(=O)CN1C(=O)N(CC(=O)Nc2cccc(-c3nn[nH]n3)c2)N=C(C2CCCCC2)c2ccccc21 | 7.76

molecular target: T3, Gastrin/cholecystokinin type B receptor (Canis lupus familiaris, UniProt P30552); assay: Displacement of [125I]BH-[…] from CCK2 receptor in canine gastric mucosa; type: tissue-based; conditions: not given
T3 sequence (P30552 whole entry): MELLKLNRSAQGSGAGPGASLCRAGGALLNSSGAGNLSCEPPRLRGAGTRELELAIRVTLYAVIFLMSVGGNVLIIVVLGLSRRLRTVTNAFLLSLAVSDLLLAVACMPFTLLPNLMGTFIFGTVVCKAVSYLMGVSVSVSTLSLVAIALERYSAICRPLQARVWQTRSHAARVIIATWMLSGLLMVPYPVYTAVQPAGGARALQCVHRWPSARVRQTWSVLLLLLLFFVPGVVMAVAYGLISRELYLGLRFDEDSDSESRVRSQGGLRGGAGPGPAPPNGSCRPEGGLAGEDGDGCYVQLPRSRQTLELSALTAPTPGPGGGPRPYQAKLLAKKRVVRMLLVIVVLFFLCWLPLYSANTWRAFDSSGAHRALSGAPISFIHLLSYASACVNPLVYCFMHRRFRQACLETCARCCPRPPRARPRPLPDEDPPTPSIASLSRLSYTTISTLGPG

Compound | Ki [nM]
CC(C)(C)C(=O)CN1C(=O)N(CC(=O)Nc2ccc3ccn(CC(=O)O)c3c2)N=C(C2CCCCC2)c2ccccc21 | 2.4
O=C(O)CCc1cccc(NC(=O)CN2N=C(C3CCCCC3)c3ccccc3N(CC(=O)C3CCCC3)C2=O)c1 | 4.27
O=C(O)Cc1cccc(NC(=O)CN2N=C(C3CCCCC3)c3ccccc3N(CC(=O)C3CCCC3)C2=O)c1 | 6.31
O=C(O)CSc1cccc(NC(=O)CN2N=C(C3CCCCC3)c3ccccc3N(CC(=O)C3CCCC3)C2=O)c1 | 4.79
CC(C)(C)C(=O)CN1C(=O)N(CC(=O)Nc2cccc(-c3nn[nH]n3)c2)N=C(C2CCCCC2)c2ccccc21 | 3.16

molecular target: T4, Gastrin/cholecystokinin type B receptor (Canis lupus familiaris) (UniProt P30552); assay: Inhibition of pentagastrin-stimulated gastric acid secretion in conscious gastric fistula dog at 1 mg/kg, iv; type: functional, organism-based; parameters: dose 1 mg/kg; conditions: Stomach
T4 sequence (whole entry): T3 sequence (P30552 whole entry)

Compound | inhibition [%]
CNc1cccc(NC(=O)N[C@@H]2N=C(c3ccccn3)c3ccccc3N(CC(=O)C(C)(C)C)C2=O)c1 [NETAZEPIDE] | 66

molecular target: T4, Gastrin/cholecystokinin type B receptor (Canis lupus familiaris); assay: Inhibition of pentagastrin-stimulated gastric acid secretion in conscious gastric fistula dog at 0.05 mg/kg, iv; type: functional, organism-based; parameters: dose 0.05 mg/kg; conditions: Stomach

Compound | inhibition [%]
CNc1cccc(NC(=O)N[C@@H]2N=C(c3ccccn3)c3ccccc3N(CC(=O)C(C)(C)C)C2=O)c1 [NETAZEPIDE] | 97

molecular target: T5, Gastrin/cholecystokinin type B receptor (Homo sapiens, UniProt P32239); assay: Displacement of [125I]BH-CCK-8S from human recombinant CCK2 receptor expressed in NIH3T3 cells; conditions: not given
T5 sequence (P32239 whole entry): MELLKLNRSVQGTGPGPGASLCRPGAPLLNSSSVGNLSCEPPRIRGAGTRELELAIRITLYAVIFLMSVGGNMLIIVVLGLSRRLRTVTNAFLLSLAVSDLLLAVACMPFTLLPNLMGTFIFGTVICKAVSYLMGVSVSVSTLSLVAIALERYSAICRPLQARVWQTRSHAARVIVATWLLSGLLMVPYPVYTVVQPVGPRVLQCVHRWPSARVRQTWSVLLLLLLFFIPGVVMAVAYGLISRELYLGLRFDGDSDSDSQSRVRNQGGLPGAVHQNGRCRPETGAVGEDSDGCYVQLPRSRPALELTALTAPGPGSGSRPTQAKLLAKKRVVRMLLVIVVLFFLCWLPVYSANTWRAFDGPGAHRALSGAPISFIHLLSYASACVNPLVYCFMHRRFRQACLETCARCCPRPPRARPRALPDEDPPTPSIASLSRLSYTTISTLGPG

Compound | Ki [nM]
CC(C)(C)C(=O)CN1C(=O)N(CC(=O)Nc2cccc(-c3nc(C(=O)O)co3)c2)N=C(C2CCCCC2)c2ccccc21 | 0.363
CC(C)(C)C(=O)CN1C(=O)N(CC(=O)Nc2ccc3ccn(CC(=O)O)c3c2)N=C(C2CCCCC2)c2ccccc21 | 0.295
O=C(O)CCc1cccc(NC(=O)CN2N=C(C3CCCCC3)c3ccccc3N(CC(=O)C3CCCC3)C2=O)c1 | 0.339
CC(C)(C)C(=O)CN1C(=O)N(CC(=O)Nc2cccc(-c3ccc(C(=O)O)o3)c2)N=C(C2CCCCC2)c2ccccc21 | 0.245
CC(C)(C)C(=O)CN1C(=O)N(CC(=O)Nc2ccc3ncn(CC(=O)O)c3c2)N=C(C2CCCCC2)c2ccccc21 | 17
CC(C)(C)C(=O)CN1C(=O)N(CC(=O)Nc2cccc(-c3csc(C(=O)O)n3)c2)N=C(C2CCCCC2)c2ccccc21 | 0.661
CC(C)(C)C(=O)CN1C(=O)N(CC(=O)Nc2cccc(-c3cccn3CC(=O)O)c2)N=C(C2CCCCC2)c2ccccc21 | 0.912
CC(C)(C)C(=O)CN1C(=O)N(CC(=O)Nc2cccc(CCC(=O)O)c2)N=C(C2CCCCC2)c2ccccc21 | 1.86
CC(C)(C)C(=O)CN1C(=O)N(CC(=O)Nc2cccc(SCc3nn[nH]n3)c2)N=C(C2CCCCC2)c2ccccc21 | 0.708
O=C(O)Cc1cccc(NC(=O)CN2N=C(C3CCCCC3)c3ccccc3N(CC(=O)C3CCCC3)C2=O)c1 | 0.282
CC(C)(C)C(=O)CN1C(=O)N(CC(=O)Nc2ccc3cnn(CC(=O)O)c3c2)N=C(C2CCCCC2)c2ccccc21 | 0.832
CCOCCN1C(=O)N(CC(=O)Nc2cccc(C(=O)O)c2)N=C(C2CCCCC2)c2ccccc21 | 490
CC(C)(C)C(=O)CN1C(=O)N(CC(=O)Nc2cccc3c2ccn3CC(=O)O)N=C(C2CCCCC2)c2ccccc21 | 6.03
CC(C)(C)C(=O)CN1C(=O)N(CC(=O)Nc2ccc3c(ccn3CC(=O)O)c2)N=C(C2CCCCC2)c2ccccc21 | 0.776
CC(C)(C)C(=O)CN1C(=O)N(CC(=O)Nc2ccc3c(cnn3CC(=O)O)c2)N=C(C2CCCCC2)c2ccccc21 | 9.33
CC(C)(C)C(=O)CN1C(=O)N(CC(=O)Nc2cccc3c2cnn3CC(=O)O)N=C(C2CCCCC2)c2ccccc21 | 2.75
CC(C)(C)C(=O)CN1C(=O)N(CC(=O)Nc2cccc(-c3cn(CC(=O)O)cn3)c2)N=C(C2CCCCC2)c2ccccc21 | 4.07
CC(C)(C)C(=O)CN1C(=O)N(CC(=O)Nc2cccc(-c3nn[nH]n3)c2)N=C(C2CCCCC2)c2ccccc21 | 1
CC(C)(C)C(=O)CN1C(=O)N(CC(=O)Nc2cccc(-c3cccc(C(=O)O)c3)c2)N=C(C2CCCCC2)c2ccccc21 | 1.58
